This note sets out measurements from ChEMBL document CHEMBL1201862, “PubChem BioAssay data set” (2004).

The target in experiment [1] is Voltage-gated N-type calcium channel alpha-1B subunit/Amyloid beta A4 precursor protein-binding family A member 1 (Homo sapiens, UniProt Q00975+Q02410). The experiment is classed as protein assay.
The next experiment addresses T1, Caspase-3 (Homo sapiens, UniProt P42574).
T1 sequence (P42574 whole entry): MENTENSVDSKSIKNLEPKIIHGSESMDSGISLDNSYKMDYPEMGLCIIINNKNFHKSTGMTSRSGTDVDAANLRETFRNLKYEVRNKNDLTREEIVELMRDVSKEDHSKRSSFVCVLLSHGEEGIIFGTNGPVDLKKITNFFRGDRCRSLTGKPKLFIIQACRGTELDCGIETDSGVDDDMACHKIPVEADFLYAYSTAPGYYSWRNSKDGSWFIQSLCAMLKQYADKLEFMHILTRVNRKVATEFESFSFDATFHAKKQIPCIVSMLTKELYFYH
Format: functional.

For experiment [2], the target named is T2, Rac GTPase-activating protein 1 (Homo sapiens, UniProt Q9H0H5).
T2 sequence (Q9H0H5 whole entry): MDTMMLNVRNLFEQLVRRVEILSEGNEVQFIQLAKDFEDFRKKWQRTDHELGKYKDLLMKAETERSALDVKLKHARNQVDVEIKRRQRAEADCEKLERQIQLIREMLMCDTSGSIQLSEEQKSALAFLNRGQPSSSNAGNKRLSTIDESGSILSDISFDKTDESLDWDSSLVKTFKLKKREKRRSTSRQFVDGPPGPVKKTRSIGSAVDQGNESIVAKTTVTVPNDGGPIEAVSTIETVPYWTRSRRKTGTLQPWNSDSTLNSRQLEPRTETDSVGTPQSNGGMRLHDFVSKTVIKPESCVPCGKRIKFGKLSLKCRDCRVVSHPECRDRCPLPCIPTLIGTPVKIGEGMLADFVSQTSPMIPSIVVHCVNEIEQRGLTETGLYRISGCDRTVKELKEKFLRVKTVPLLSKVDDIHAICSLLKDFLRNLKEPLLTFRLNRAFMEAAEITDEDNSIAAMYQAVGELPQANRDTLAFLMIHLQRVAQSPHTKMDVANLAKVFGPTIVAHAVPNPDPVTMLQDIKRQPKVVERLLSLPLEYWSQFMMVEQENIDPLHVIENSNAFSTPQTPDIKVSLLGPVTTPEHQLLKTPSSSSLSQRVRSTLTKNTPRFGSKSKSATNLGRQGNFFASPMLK
The experiment can be described thus: MgcRacGAP GTPase-activating activity inhibitors, confirmation, biochemical, ADP Hunter fluorescence, primary and confirmatory (AID 624330). Format: functional.

Experiment [3] addresses T3, Heat shock factor protein 1 (Mus musculus, UniProt P38532).
T3 sequence (P38532 whole entry): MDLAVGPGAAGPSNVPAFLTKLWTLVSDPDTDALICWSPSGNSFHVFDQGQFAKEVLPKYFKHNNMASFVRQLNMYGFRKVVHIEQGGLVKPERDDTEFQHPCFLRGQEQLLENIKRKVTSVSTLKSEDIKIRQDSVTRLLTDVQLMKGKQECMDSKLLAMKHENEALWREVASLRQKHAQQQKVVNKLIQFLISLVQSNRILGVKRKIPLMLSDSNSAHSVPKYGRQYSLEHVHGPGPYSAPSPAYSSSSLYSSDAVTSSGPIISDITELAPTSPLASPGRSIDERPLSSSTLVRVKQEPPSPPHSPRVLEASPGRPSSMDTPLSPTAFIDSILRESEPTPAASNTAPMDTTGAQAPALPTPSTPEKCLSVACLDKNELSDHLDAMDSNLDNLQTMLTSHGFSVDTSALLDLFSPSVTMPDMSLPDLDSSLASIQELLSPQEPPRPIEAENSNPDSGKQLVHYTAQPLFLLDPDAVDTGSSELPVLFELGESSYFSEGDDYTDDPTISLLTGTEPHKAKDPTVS
The experiment can be described thus: inhibition of MG132-induced HSE-luciferase signal, confirmation, cell-based, NIH3T3, luminescence, dose retest (AID 2382).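 Note: NIH3T3 fibroblasts with HSF1-driven luciferase reporter stressed by proteasome inhibitor MG132; luminescence from HSF1-driven luciferase expression after 8 hours of MG132 stress.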 The experiment is classed as functional.

Experiment [4] has as its target T4, Replicative DNA helicase DnaB (Mycobacterium tuberculosis, UniProt P9WMR3).
T4 sequence (P9WMR3 whole entry): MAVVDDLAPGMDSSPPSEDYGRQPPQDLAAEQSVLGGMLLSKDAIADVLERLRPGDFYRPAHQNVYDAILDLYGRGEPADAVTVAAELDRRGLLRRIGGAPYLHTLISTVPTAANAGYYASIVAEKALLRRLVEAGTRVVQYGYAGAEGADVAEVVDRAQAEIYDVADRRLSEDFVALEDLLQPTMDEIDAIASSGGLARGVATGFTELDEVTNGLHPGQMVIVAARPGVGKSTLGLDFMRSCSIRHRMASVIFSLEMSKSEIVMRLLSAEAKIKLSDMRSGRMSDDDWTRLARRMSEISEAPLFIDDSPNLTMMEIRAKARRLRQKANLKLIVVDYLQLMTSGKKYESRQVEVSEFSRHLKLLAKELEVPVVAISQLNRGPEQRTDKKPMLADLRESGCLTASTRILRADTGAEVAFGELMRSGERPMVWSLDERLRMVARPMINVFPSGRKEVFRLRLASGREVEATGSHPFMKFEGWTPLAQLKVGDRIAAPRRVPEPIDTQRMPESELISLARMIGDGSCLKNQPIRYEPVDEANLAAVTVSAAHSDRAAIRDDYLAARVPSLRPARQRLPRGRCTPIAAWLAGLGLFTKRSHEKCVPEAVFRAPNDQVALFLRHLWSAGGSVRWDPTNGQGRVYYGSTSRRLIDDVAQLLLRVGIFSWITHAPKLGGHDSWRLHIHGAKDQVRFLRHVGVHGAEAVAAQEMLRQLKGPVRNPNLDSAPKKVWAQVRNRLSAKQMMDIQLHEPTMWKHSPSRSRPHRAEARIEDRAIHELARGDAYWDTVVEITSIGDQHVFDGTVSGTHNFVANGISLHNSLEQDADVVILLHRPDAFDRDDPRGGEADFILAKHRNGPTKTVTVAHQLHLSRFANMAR
The experiment can be described thus: DnaB intein splicing inhibitors, dose response, biochemical, cell-free fluorescence (AID 449749). The experiment is classed as functional.

Experiment [5] concerns the target Serine/threonine-protein kinase pim-1 (Homo sapiens, UniProt P11309). The experiment is classed as functional.
Experiment [6] concerns the target Tyrosine-protein kinase BTK (Homo sapiens, UniProt Q06187). The experiment is classed as functional.
Experiment [7] concerns the target Tyrosine-protein kinase JAK3 (Homo sapiens, UniProt P52333). The experiment is classed as functional.
Experiment [8] has as its target Dual specificity mitogen-activated protein kinase kinase 2 (Homo sapiens, UniProt P36507). In words: Navigating the Kinome. Panel member name: MAP2K2. The experiment is classed as functional.

As usually defined, the IC50 is the midpoint of a concentration-inhibition curve. For orientation: EC50 means the midpoint of the concentration-response curve. A word on the AC50: it is the concentration giving half of the maximal activity seen. One may read the Ki as the dissociation constant of the complex between target and ligand, obtained from inhibition or displacement.

SMILES strings stand for the structures. The source made the active and inactive calls.

Voltage-gated N-type calcium channel alpha-1B subunit/Amyloid beta A4 precursor protein-binding family A member 1, sequence (Q00975 whole entry): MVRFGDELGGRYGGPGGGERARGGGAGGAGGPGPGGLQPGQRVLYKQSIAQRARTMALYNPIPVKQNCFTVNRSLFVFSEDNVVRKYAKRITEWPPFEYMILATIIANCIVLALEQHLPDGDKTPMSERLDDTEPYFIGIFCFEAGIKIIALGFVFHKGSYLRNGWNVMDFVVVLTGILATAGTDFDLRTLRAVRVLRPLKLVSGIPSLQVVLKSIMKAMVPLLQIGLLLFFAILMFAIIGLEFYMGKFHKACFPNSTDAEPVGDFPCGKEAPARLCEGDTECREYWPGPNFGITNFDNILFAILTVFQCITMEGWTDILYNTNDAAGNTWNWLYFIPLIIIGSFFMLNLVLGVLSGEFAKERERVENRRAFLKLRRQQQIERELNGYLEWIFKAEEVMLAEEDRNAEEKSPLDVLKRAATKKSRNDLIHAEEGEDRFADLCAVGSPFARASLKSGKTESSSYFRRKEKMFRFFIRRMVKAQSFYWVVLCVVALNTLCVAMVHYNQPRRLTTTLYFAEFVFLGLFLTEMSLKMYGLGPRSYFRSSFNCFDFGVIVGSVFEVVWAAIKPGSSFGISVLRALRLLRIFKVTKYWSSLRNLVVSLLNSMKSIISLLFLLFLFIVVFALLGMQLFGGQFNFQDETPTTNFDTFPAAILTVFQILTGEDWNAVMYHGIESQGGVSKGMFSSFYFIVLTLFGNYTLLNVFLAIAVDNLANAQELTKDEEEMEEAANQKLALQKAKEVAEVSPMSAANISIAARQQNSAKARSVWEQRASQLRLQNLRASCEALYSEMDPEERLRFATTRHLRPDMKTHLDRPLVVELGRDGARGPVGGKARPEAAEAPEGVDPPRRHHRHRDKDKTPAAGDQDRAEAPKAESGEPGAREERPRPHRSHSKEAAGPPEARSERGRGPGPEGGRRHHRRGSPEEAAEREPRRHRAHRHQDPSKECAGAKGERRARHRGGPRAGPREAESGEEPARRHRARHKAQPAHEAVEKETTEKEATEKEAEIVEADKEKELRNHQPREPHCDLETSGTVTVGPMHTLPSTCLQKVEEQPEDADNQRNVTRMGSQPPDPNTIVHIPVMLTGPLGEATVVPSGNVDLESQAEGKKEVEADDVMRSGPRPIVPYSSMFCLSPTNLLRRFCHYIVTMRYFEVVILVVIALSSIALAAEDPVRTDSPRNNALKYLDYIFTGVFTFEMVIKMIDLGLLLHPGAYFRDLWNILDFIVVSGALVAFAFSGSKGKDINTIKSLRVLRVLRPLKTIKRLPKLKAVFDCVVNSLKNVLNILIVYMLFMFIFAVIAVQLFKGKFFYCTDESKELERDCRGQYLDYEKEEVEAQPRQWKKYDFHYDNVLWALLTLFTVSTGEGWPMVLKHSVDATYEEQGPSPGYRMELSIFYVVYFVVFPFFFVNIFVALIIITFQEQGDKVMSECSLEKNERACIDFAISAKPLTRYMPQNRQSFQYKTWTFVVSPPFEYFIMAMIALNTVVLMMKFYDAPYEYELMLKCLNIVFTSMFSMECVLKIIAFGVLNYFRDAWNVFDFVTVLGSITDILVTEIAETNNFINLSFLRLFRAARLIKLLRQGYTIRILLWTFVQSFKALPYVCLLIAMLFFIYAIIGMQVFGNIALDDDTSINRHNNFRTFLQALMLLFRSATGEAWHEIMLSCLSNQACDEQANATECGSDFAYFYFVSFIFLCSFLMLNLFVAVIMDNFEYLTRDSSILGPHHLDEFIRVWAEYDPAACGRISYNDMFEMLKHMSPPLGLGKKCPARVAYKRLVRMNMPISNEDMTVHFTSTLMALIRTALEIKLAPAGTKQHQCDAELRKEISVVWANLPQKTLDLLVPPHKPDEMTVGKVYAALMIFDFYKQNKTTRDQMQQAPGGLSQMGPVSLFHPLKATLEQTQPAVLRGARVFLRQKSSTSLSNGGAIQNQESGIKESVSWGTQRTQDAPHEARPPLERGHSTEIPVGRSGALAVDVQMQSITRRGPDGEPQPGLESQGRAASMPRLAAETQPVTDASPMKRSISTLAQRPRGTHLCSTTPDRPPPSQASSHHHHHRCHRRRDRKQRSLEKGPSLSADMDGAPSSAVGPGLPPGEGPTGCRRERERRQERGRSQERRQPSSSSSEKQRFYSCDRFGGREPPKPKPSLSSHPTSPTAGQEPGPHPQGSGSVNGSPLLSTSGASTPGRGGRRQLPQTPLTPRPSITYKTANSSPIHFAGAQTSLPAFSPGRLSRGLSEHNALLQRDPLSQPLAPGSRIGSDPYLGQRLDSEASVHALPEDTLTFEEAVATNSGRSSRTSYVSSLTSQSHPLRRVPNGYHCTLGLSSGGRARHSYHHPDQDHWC
Voltage-gated N-type calcium channel alpha-1B subunit/Amyloid beta A4 precursor protein-binding family A member 1, sequence (Q02410 whole entry): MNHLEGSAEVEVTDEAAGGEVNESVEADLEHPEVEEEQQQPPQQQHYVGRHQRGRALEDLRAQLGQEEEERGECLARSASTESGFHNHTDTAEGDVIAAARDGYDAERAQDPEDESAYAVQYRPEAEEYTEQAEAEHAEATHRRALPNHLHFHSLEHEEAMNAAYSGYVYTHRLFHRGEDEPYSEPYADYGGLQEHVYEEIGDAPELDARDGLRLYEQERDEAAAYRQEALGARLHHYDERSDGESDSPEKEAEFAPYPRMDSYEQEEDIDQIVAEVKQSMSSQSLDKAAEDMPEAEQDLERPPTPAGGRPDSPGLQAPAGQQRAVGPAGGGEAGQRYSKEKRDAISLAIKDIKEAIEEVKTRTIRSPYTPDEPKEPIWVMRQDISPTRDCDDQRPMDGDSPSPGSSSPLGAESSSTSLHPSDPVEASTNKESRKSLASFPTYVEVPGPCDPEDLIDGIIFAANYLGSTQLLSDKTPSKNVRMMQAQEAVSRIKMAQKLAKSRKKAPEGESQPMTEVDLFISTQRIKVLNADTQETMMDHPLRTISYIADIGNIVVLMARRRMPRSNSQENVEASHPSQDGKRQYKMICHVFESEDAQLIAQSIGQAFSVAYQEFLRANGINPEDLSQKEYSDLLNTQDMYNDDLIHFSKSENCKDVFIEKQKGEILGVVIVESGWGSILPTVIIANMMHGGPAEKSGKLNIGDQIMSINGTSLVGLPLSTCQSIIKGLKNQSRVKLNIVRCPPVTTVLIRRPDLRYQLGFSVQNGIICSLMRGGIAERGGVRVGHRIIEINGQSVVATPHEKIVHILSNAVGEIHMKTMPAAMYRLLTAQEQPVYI
Tyrosine-protein kinase JAK3, sequence (P52333 whole entry): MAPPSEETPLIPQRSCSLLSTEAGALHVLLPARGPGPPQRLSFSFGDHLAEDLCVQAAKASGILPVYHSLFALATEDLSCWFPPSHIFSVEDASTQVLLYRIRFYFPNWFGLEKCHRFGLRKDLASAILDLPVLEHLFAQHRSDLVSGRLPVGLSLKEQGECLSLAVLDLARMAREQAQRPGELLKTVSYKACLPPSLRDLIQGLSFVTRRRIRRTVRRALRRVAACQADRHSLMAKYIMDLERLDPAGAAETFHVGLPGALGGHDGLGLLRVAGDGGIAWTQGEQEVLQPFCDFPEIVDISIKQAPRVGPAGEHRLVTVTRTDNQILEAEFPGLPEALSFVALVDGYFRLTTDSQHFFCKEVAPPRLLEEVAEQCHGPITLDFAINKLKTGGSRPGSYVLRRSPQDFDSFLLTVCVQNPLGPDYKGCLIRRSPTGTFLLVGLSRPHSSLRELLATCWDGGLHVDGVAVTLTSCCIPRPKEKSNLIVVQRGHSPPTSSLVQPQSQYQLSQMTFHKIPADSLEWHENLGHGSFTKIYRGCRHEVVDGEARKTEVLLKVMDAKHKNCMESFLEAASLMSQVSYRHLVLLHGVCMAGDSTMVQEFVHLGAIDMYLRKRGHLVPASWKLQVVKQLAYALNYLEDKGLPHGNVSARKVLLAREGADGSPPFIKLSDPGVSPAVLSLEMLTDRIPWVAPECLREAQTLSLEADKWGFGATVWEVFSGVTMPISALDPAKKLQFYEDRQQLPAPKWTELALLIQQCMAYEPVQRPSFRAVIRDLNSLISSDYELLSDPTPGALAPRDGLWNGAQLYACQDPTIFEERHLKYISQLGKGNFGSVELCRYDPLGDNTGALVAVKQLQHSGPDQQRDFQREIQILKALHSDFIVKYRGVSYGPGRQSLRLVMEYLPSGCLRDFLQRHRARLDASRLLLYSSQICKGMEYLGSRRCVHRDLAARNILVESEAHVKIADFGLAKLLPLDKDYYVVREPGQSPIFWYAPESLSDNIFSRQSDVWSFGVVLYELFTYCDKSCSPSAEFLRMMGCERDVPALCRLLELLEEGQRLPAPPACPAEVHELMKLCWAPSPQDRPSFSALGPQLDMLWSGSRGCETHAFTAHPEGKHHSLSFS
Dual specificity mitogen-activated protein kinase kinase 2, sequence (P36507 whole entry): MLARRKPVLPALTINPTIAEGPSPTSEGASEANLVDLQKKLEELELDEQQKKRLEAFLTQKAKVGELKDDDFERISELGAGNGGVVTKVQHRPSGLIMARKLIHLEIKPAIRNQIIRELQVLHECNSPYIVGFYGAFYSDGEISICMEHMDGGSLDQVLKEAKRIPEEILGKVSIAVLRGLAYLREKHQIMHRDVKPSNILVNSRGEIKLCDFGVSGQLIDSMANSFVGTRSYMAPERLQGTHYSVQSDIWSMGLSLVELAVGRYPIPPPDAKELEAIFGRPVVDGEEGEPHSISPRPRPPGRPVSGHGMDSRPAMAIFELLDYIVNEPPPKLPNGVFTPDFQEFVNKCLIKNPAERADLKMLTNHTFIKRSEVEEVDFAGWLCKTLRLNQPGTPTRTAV
Serine/threonine-protein kinase pim-1, sequence (P11309 whole entry): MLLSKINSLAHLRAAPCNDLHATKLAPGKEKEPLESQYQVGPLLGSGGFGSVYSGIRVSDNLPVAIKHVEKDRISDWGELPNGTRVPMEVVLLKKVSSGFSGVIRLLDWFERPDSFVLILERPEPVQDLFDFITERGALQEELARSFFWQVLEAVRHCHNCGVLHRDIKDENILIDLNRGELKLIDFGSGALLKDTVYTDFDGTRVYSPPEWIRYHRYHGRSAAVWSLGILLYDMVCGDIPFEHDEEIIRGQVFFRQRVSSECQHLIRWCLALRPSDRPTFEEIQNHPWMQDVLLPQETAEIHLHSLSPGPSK

As for `CC(=O)N(C1=C(Cl)C(=O)c2ccccc2C1=O)c1ccc(C(=O)O)cc1`, the 50% inhibitory concentration (IC50) in experiment [1] was 0.225 µM (active); on Caspase-3, 14.2 µM (active); in [2], 165 µM (active).
On to `CC1(C)C=C2C(=NN(c3ccccc3)C(N)=C2C#N)CO1`, for which, in experiment [3], the EC50 is on record as > 195 µM (not active). The AC50 in experiment [4] is > 380 µM (inconclusive).
Take `Cc1ccc(-c2cc3nc(Br)cnc3[nH]2)cc1`: the Ki was > 6.31 µM (inactive) in experiment [5], > 6.31 µM (inactive) in experiment [6], > 5.01 µM (inactive) in experiment [7] and > 3.98 µM (inactive) in [8].
